How the values were obtained:
E. coli in UTI samples = assay: Flow cytometric antibiotic sensitivity of positive UTI urine samples (Firsway clinic) in Terrific Broth with diS-C3(5); assay type: cell-based; set-up: key: R—resistant; S—sensitive; details: antibiotic at nominal 3x MIC
Description: Initial studies used a Sony SH-800 instrument, but all studies reported here used an Intellicyt® iQue screener PLUS. This instrument is based in significant measure on developments by Sklar and colleagues (e.g. (Edwards et al. 2009; Sklar et al. 2007; Tegos et al. 2014)), and uses segmented flow (Skeggs 1957) to sample from 96- or 384-well U- or V-bottom plates prior to their analysis. The iQue Plus contains three excitation sources (405 nm, 488 nm, 640 nm) and 7 fixed filter detectors (with a midpoint/range in nm of 445/45, 530/30, 572/28, 585/40, 615/24, 675/30, 780/60, giving 13 fluorescence channels) whose outputs are stored as both ‘height’ and area, using the FCS3.0 data file standard (Seamer et al. 1997). Forward and side scatter are obtained from the 488 nm excitation source. Detection channels are referred to by the laser used (405 nm violet VL, 488 nm blue BL, and 640 nm red RL) and the detector number in order of possible detectors with a longer wavelength. Thus RL1, as used for detecting di-S-C3(5), implies the red laser and the 675/30 detector. Data are collected from all channels, using a dynamic range of 7 logs. Many parameters may be used to vary the precise performance of the instrument. Those we found material to provide the best reproducibility and to minimise carryover, and their selected values, are as follows: Automatic prime—60 secs (in Qsol buffer); Pre-plate shake—15 s and 1500 rpm; Sip time—2 s (actual sample uptake); Additional sip time—0.5 s (the gap between sips); Pump speed—29 rpm (1.5 μL·s^−1 sample uptake); Plate model—U-bottom well plate (for 96 well plates); Mid plate cleanup—After every well (4 washes; 0.5 s each in Qsol buffer); Inter-well shake—1500 rpm; after 6 wells, 4 sec in Qsol buffer; Flush and Clean—30 sec with Decon and Clean buffers followed by 60 sec with deionised water. The Forecyt™ software supplied with the instrument may be used to gate and display all the analyses post hoc. It, and the FlowJo software, were used in the preparation of the cytograms shown. Where used, di-S-C3(5) was present at a final concentration of 3 μM; its analysis used excitation at 640 nm and detection at 675±15 nm, the fluorescence channel being referred to as RL1. For DNA analyses, cells were fixed by injection into ice-cold ethanol (final concentration 70%), washed twice by centrifugation in 0.1 M-Tris/HCl buffer, pH 7.4, before resuspension in the same buffer containing mithramycin (50 μg mL^−1) and ethidium bromide (25 μg mL^−1), MgCl2, (25 mM) and NaCl (100 mM) (Boye et al. 1983). […] All the solutions and media used were filtered through 0.2 μm filter.
Samples were taken at various times during the day, kept at 4° C., delivered to the Manchester laboratory by taxi, plated out (LB agar containing as appropriate the stated antibiotics at 3 times normal MIC) to assess microbial numbers and antibiotic sensitivity, the remaining sample kept again at 4° C., and analysed flow cytometrically within 18 h. For flow cytometric assessment, cells were diluted into 37° C. Terrific Broth containing 3 μM diS-C3(5) plus any appropriate antibiotic, and assayed as above. For other experiments (not shown) cells were filtered (0.45 μm) and diluted as appropriate into warmed terrific broth.
Finally, we wished to determine whether this method, as developed in laboratory cultures, could be applied to candidate UTI specimens ‘as received’ in a doctor's surgery.

E. coli MG1655 = assay: Flow cytometric particle counting of proliferation with antibiotic in 20 mins (FIG. 6C); assay type: cell-based; details: sensitive strain E. coli MG1655, Terrific Broth
Description: Initial studies used a Sony SH-800 instrument, but all studies reported here used an Intellicyt® iQue screener PLUS. This instrument is based in significant measure on developments by Sklar and colleagues (e.g. (Edwards et al. 2009; Sklar et al. 2007; Tegos et al. 2014)), and uses segmented flow (Skeggs 1957) to sample from 96- or 384-well U- or V-bottom plates prior to their analysis. The iQue Plus contains three excitation sources (405 nm, 488 nm, 640 nm) and 7 fixed filter detectors (with a midpoint/range in nm of 445/45, 530/30, 572/28, 585/40, 615/24, 675/30, 780/60, giving 13 fluorescence channels) whose outputs are stored as both ‘height’ and area, using the FCS3.0 data file standard (Seamer et al. 1997). Forward and side scatter are obtained from the 488 nm excitation source. Detection channels are referred to by the laser used (405 nm violet VL, 488 nm blue BL, and 640 nm red RL) and the detector number in order of possible detectors with a longer wavelength. Thus RL1, as used for detecting di-S-C3(5), implies the red laser and the 675/30 detector. Data are collected from all channels, using a dynamic range of 7 logs. Many parameters may be used to vary the precise performance of the instrument. Those we found material to provide the best reproducibility and to minimise carryover, and their selected values, are as follows: Automatic prime—60 secs (in Qsol buffer); Pre-plate shake—15 s and 1500 rpm; Sip time—2 s (actual sample uptake); Additional sip time—0.5 s (the gap between sips); Pump speed—29 rpm (1.5 μL·s^−1 sample uptake); Plate model—U-bottom well plate (for 96 well plates); Mid plate cleanup—After every well (4 washes; 0.5 s each in Qsol buffer); Inter-well shake—1500 rpm; after 6 wells, 4 sec in Qsol buffer; Flush and Clean—30 sec with Decon and Clean buffers followed by 60 sec with deionised water. […] Where used, di-S-C3(5) was present at a final concentration of 3 μM; its analysis used excitation at 640 nm and detection at 675±15 nm, the fluorescence channel being referred to as RL1. […]

[1] = UTI sample May 25, 2018 (first listed)
[2] = UTI sample May 25, 2018 (second listed)

SMILES	Antibiotic sensitivity (E. coli in UTI samples; UTI sample Jul. 16, 2018)	Antibiotic sensitivity (E. coli in UTI samples; UTI sample Jul. 18, 2018)	Antibiotic sensitivity (E. coli in UTI samples; UTI sample Jul. 20, 2018)	Antibiotic sensitivity (E. coli in UTI samples; UTI sample Jun. 6, 2018)	Antibiotic sensitivity (E. coli in UTI samples; [1])	Antibiotic sensitivity (E. coli in UTI samples; [2])	Effect on cell proliferation (E. coli MG1655)
O=C1CN(/N=C/c2ccc([N+](=O)[O-])o2)C(=O)N1 [Nitrofurantoin]	S	R	S	S	S	S	–
CC1(C)S[C@@H]2[C@H](NC(=O)[C@H](N)c3ccccc3)C(=O)N2[C@H]1C(=O)O [Ampicillin]	R	R	S	R	R	S	work effectively
O=C(O)c1cn(C2CC2)c2cc(N3CCNCC3)c(F)cc2c1=O [Ciprofloxacin]	–	–	–	–	–	–	work effectively
COc1cc(Cc2cnc(N)nc2N)cc(OC)c1OC [Trimethoprim]	S	S	R	S	R	S	work effectively
